Reference: patent US8252814B2, “Agents and crystals for improving excretory potency of urinary bladder” (priority 1998, dated 2012)

Legend:
[1] = target: T1, human erythrocyte-derived acetylcholine esterase (Homo sapiens, UniProt P22303); assay: Determination of the activity to inhibit the acetylcholine esterase of the crystals (Ellman method), Experimental Example 5; format: biochemical; conditions: at least three experiments
T1 construct: Acetylcholinesterase of human erythrocyte origin (Sigma Chemical Co.); purchased Sigma Chemical Co; host or cells: human erythrocytes (natural source)
T1 sequence (P22303 32-617 isoform P22303-2 limits assumed): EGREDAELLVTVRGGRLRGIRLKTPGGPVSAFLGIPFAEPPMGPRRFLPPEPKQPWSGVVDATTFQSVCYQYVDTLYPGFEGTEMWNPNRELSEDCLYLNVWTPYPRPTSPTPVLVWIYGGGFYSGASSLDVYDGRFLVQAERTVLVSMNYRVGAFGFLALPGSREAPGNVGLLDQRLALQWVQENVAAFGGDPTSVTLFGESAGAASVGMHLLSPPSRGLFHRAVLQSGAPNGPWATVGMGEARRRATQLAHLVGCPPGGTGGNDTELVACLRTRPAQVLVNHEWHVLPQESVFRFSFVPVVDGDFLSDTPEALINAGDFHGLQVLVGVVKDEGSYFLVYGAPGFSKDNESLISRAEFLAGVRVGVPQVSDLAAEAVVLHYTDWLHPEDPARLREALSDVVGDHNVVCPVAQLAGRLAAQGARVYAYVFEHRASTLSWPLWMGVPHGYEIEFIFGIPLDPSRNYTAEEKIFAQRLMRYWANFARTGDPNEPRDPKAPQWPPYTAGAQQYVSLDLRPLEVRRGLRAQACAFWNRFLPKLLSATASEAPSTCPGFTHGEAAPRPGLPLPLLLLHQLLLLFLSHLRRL
Description: The activity to inhibit the acetylcholine esterase of the crystals obtained in Example 1 was determined according to the acetylthiocholine method (the Ellman method) by the use of a human erythrocyte-derived acetylcholine esterase.
A human erythrocyte-derived acetylcholine esterase (Sigma Chemical Company) was dissolved into distilled water to obtain a standard enzyme preparation with an enzyme concentration of 0.2 IU/mL. […]
The activity to inhibit the acetylcholine esterase of the crystals obtained in Example 1 was determined according to the acetylthiocholine method (the ElIman method) by the use of a human erythrocyte-derived acetylcholine esterase.
A human erythrocyte-derived acetylcholine esterase (Sigma Chemical Company) was dissolved into distilled water to obtain a standard enzyme preparation with an enzyme concentration of 0.2 IU/mL. […] As soon as 50 μl of a 4-mM solution of acetylthiocholine iodide (Sigma Chemical Company) was added and shaking was started again, every increment in absorbance at the wavelength of 414 nm at an interval of 30 seconds was determined for 10 minutes. R=5.74×10^−7×ΔA (wherein R indicates an enzyme activity (mol) and ΔA indicates an increment in absorbance at the wavelength of 414 nm). […] Furthermore, the activity to inhibit the acetylcholine esterase of distigmine was determined in a manner similar to that described in the above method.

[2] = Stability test, Experimental Example 7; format: physicochemical
Description: A number of specimens of the crystals obtained in Example 1 were stored under the following conditions and then their changes in the property and the remaining percent were determined.
Storing conditions: 1. 60° C. for 3 months (in a brown glass bottle, closed); 2. 45° C., the relative humidity of 75% for 3 months (in a brown glass bottle, closed); 3. 40° C., the to relative humidity of 75% for 3 months (in a brown glass bottle, opened); 4. irradiated with a xenon lamp (60000 lux) for 20 hours (1.2 million lux/hour) (on a Petri dish covered with a polyvinylidene chloride film).

O=C(CCC1CCN(Cc2cccc(F)c2)CC1)c1cc2c3c(c1)CCN3C(=O)CC2 [Example 1, 8-[3-[1-[(3-fluorophenyl)-methyl]-4-piperidinyl]-1-oxopropyl]-1,2,5,6-tetrahydro-4H-pyrrolo-[3,2,1-ij]quinolin-4-one]
IC50 [1]: 6.6 nM
Remaining percent (%) ([2]; storing condition 1 (60° C./3 months), brown glass bottle, closed): 99.8%
Remaining percent (%) ([2]; storing condition 2 (40° C./75% RH, closed), 3 months, brown glass bottle): 101.6%
Remaining percent (%) ([2]; storing condition 3 (40° C./75% RH, open), 3 months, brown glass bottle): 100.2%
Remaining percent (%) ([2]; storing condition 4 (Xenon lamp/20 hs.), 60000 lux): 100.1%
stability (in words) ([2]; storing conditions 1 to 4): any change in the property and any decrease in the remaining percent were not observed
